Key:
Type in all cases: cell-based
[1] = biological target: EP2 subtype of the human PGE2 receptor (Homo sapiens, UniProt P43116); test: cAMP antagonism test on the human EP2 receptor (HTRF cAMP detection); details: hEP2 receptor, read-out: Antagonism hEP2 IC50
Summary of the method: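 Read-out is a competitive HTRF for cAMP: lysate cAMP displaces cAMP-d2 from Eu cryptate-labelled antibody, and antagonism raises the 665/620 nm ratio. Compound (0.8 nM–16.5 μM) added to EP2 cells 20 min at RT before 60 min PGE2 challenge (3× stock 1.5 nM) with IBMX, followed by 20 min lysis.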

[2] = biological target: EP4 subtype of the human PGE2 receptor (Homo sapiens, UniProt P35408); test: cAMP antagonism test on the human EP4 receptor (HTRF cAMP detection); details: selectivity towards hEP4, IC50 measured by cAMP antagonism test
Summary of the method: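 Competitive HTRF cAMP read-out (cAMP-d2 vs Eu-cryptate anti-cAMP antibody, 665/620 nm ratio) on lysed human EP4 cells. Compound (0.8 nM–16.5 μM) applied 20 min at RT before 60 min PGE2 challenge (3× solution 0.3 nM, IBMX present); 20 min lysis precedes reading.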

human PGD receptor = biological target: T1, human PGD receptor (Homo sapiens, UniProt Q13258); test: cAMP antagonism test on the human prostaglandin D receptor (HTRF cAMP detection); details: selectivity towards hDP, IC50 measured by cAMP antagonism test
T1 sequence (Q13258 1-359): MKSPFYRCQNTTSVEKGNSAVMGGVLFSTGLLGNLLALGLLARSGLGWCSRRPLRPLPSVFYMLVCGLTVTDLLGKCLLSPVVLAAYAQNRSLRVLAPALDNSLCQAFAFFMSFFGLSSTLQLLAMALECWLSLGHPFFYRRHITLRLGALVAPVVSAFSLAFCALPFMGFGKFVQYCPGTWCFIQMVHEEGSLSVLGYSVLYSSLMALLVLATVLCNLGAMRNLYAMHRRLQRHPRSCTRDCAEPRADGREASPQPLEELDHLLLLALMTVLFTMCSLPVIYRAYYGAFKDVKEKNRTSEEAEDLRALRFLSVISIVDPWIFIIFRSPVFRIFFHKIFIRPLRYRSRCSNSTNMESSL
Summary of the method: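 HTRF competition read-out (665/620 nm ratio ×10000), where higher FRET means less cAMP, i.e. antagonism. Compounds (0.8 nM–16.5 μM) were preincubated 20 min at RT with cells and cAMP-d2, PGD2 (3× solution, 6 nM) in IBMX-containing PBS added for 30 min at RT, then cells lysed 20 min.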

EP4 subtype of the human PGE2 receptor, sequence (P35408 whole entry): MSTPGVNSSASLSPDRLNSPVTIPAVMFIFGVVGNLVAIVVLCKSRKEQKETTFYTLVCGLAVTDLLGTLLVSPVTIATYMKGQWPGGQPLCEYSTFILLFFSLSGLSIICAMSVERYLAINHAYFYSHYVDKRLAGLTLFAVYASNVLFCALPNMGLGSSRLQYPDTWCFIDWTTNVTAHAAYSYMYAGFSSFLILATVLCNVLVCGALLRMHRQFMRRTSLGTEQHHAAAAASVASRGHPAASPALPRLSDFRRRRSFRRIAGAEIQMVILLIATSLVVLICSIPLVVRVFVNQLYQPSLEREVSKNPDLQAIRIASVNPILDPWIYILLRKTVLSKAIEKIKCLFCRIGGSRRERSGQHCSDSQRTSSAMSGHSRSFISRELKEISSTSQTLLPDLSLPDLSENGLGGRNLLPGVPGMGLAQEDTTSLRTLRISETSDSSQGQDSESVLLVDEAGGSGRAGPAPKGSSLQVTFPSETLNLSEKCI
EP2 subtype of the human PGE2 receptor, sequence (P43116 whole entry): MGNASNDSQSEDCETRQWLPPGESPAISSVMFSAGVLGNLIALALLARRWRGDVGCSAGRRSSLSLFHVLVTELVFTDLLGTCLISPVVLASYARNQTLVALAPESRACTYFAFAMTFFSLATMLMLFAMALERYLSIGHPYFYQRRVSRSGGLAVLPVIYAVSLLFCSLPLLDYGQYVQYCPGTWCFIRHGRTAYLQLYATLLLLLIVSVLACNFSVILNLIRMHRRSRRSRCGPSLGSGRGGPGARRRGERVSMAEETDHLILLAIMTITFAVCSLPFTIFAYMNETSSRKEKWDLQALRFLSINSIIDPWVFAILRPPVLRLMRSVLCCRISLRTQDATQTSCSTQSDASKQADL

Row | SMILES | IC50 [1] | Selectivity hEP2/hEP4 [2] | Selectivity hEP2/hDP (human PGD receptor)
1 | COCCNC(=O)c1ccc2nn(CC3CCN(C(=O)c4ccc(-c5cccc(OC)n5)cc4)CC3)cc2c1C [Example 378, N-(2-methoxyethyl)-2-({1-[4-(6-methoxypyridin-2-yl)benzoyl]piperidin-4-yl}methyl)-4-methyl-2H-indazol-5-carboxamide] | 7.77 nM | xxx (xxx > 100) | xxx (xxx > 100)
2 | Cc1c(C(=O)NCCSC(F)(F)F)ccc2nn(CC3CN(C(=O)c4ccc(Cl)cc4)C3)cc12 [Example 127, 2-{[1-(4-chlorobenzoyl)azetidin-3-yl]methyl}-4-methyl-N-{2-[(trifluoromethyl)sulphanyl]ethyl}-2H-indazol-5-carboxamide] | 55.6 nM | xxx (xxx > 100) | xxx (xxx > 100)
3 | COC(C)CNC(=O)c1ccc2nn(CC3CN(C(=O)c4ccc(Oc5ccc(F)cc5)cc4)C3)cc2c1C (racemic) [Example 147, (+/−)-2-({1-[4-(4-fluorophenoxy)benzoyl]azetidin-3-yl}methyl)-N-(2-methoxypropyl)-4-methyl-2H-indazol-5-carboxamide] | 57.4 nM | xxx (xxx > 100) | xxx (xxx > 100)
4 | Cc1c(C(=O)NCC(F)(F)F)ccc2nn(CC3CCN(C(=O)c4ccc(-c5cccc(C(F)(F)F)n5)cc4)CC3)cc12 [Example 329, 4-methyl-N-(2,2,2-trifluoroethyl)-2-[(1-{4-[6-(trifluoromethyl)pyridin-2-yl]-benzoyl}piperidin-4-yl)methyl]-2H-indazol-5-carboxamide] | 232 nM | xx (xx: 10-100) | xx (xx: 10-100)
5 | Cc1c(C(=O)NCC(F)(F)F)ccc2nn(CC3CCN(C(=O)c4nc(-c5ccccc5)no4)CC3)cc12 [Example 305, 4-methyl-2-({1-[(3-phenyl-1,2,4-oxadiazol-5-yl)carbonyl]piperidin-4-yl}methyl)-N-(2,2,2-trifluoroethyl)-2H-indazol-5-carboxamide] | 301 nM | xx (xx: 10-100) | xx (xx: 10-100)
6 | Cc1ccc(Oc2ccc(C(=O)N3CCC(Cn4cc5c(C)c(C(=O)NCC(F)(F)F)ccc5n4)CC3)cc2)cc1 [Example 285, 4-methyl-2-({1-[4-(4-methylphenoxy)benzoyl]piperidin-4-yl}methyl)-N-(2,2,2-trifluoroethyl)-2H-indazol-5-carboxamide] | 100 nM | xxx (xxx > 100) | xxx (xxx > 100)
7 | COCCNC(=O)c1ccc2nn(CC3CCN(C(=O)c4ccc(-n5ccnc5)cc4)CC3)cc2c1C [Example 34, 2-({1-[4-(1H-imidazol-1-yl)-benzoyl]piperidin-4-yl}methyl)-N-(2-methoxyethyl)-4-methyl-2H-indazol-5-carboxamide] | 134 nM | xxx (xxx > 100) | xxx (xxx > 100)
8 | Cc1c(C(=O)NCC(F)(F)F)ccc2nn(CC3CCN(C(=O)c4ccc(OC(F)(F)F)cc4)CC3)cc12 [Example 73, 4-methyl-N-(2,2,2-trifluoroethyl)-2-({1-[4-(trifluoromethoxy)benzoyl]piperidin-4-yl}methyl)-2H-indazol-5-carboxamide] | 77.8 nM | xxx (xxx > 100) | xxx (xxx > 100)
9 | COCCNC(=O)c1ccc2nn(CC3CCN(C(=O)c4ccc(Oc5ccccc5F)cc4)CC3)cc2c1C [Example 366, 2-({1-[4-(2-fluorophenoxy)benzoyl]piperidin-4-yl}methyl)-N-(2-methoxyethyl)-4-methyl-2H-indazol-5-carboxamide] | 18.9 nM | xxx (xxx > 100) | xxx (xxx > 100)
10 | Cc1c(C(=O)NCCSC(F)(F)F)ccc2nn(CC3CN(C(=O)c4ccc(OC(F)(F)F)cc4)C3)cc12 [Example 133, 4-methyl-2-({1-[4-(trifluoromethoxy)benzoyl]azetidin-3-yl}methyl)-N-{2-[(trifluoromethyl)sulphanyl]ethyl}-2H-indazol-5-carboxamide] | 41.9 nM | xxx (xxx > 100) | xxx (xxx > 100)
11 | Cc1c(C(=O)NCCSC(F)(F)F)ccc2nn(C[C@@H]3CCN(C(=O)c4ccc(OC(F)(F)F)cc4)C3)cc12 [Example 221, 4-methyl-2-({(R)-1-[4-(trifluoromethoxy)benzoyl]pyrrolidin-3-yl}methyl)-N-{2-[(trifluoromethyl)sulphanyl]ethyl}-2H-indazol-5-carboxamide] | 235 nM | xx (xx: 10-100) | xx (xx: 10-100)
12 | COCCNC(=O)c1ccc2nn(CC3CCN(C(=O)c4cccc(Cl)c4)CC3)cc2c1C [Example 28, 2-{[1-(3-chloro-benzoyl)piperidin-4-yl]methyl}-N-(2-methoxyethyl)-4-methyl-2H-indazol-5-carboxamide] | 33.9 nM | xxx (xxx > 100) | xxx (xxx > 100)
13 | Cc1c(C(=O)NCCOCC(F)(F)F)ccc2nn(CC3CCN(C(=O)c4ccc(Cl)cc4)CC3)cc12 [Example 90, 2-{[1-(4-chlorobenzoyl)piperidin-4-yl]methyl}-4-methyl-N-[2-(2,2,2-trifluoro-ethoxy)ethyl]-2H-indazol-5-carboxamide] | 14.8 nM | xxx (xxx > 100) | xxx (xxx > 100)
14 | COCCNC(=O)c1ccc2nn(CC3CCN(C(=O)c4ccc(C(F)(F)F)cc4F)CC3)cc2c1OC [Example 267, 2-({1-[2-fluoro-4-(trifluoromethyl)benzoyl]piperidin-4-yl}methyl)-4-methoxy-N-(2-methoxyethyl)-2H-indazol-5-carboxamide] | 45.5 nM | xxx (xxx > 100) | xxx (xxx > 100)
15 | Cc1cc2nn(CC3CCN(C(=O)c4ccc(Cl)cc4)CC3)cc2cc1C(=O)NCCN1CCOCC1 [Example 74, 2-{[1-(4-chlorobenzoyl)piperidin-4-yl]methyl}-6-methyl-N-(2-morpholinoethyl)-2H-indazol-5-carboxamide] | 95.4 nM | xxx (xxx > 100) | xxx (xxx > 100)
16 | Cc1cc2nn(CC3CCN(C(=O)c4ccc(Oc5ccc(F)cc5)cc4)CC3)cc2cc1C(=O)NCCN1CCOCC1 [Example 78, 2-({1-[4-(4-fluoro-phenoxy)benzoyl]-piperidin-4-yl}-methyl)-6-methyl-N-(2-morpholinoethyl)-2H-indazol-5-carboxamide] | 31.7 nM | xxx (xxx > 100) | xxx (xxx > 100)
17 | Cc1c(C(=O)NCC(F)(F)F)ccc2nn(CC3CCN(C(=O)c4cc5ccccc5[nH]4)CC3)cc12 [Example 296, 2-{[1-(1H-Indol-2-ylcarbonyl)piperidin-4-yl]methyl}-4-methyl-N-(2,2,2-trifluoroethyl)-2H-indazol-5-carboxamide] | 29.7 nM | xxx (xxx > 100) | xxx (xxx > 100)
18 | COCCNC(=O)c1ccc2nn(CC3CN(C(=O)c4cc5cc(Cl)ccc5n4C)C3)cc2c1C [Example 171, 2-({1-[(5-chloro-1-methyl-1H-indol-2-yl)carbonyl]azetidin-3-yl}methyl)-N-(2-methoxyethyl)-4-methyl-2H-indazol-5-carboxamide] | 3.88 nM | xxx (xxx > 100) | xxx (xxx > 100)
19 | Cc1c(C(=O)NCCOC(C)(C)C)ccc2nn(CC3CCN(C(=O)c4ccc(Cl)cc4)CC3)cc12 [Example 111, N-(2-tert-butoxyethyl)-2-{[1-(4-chlorobenzoyl)piperidin-4-yl]methyl}-4-methyl-2H-indazol-5-carboxamide] | 13.7 nM | xxx (xxx > 100) | xxx (xxx > 100)
20 | Cc1c(C(=O)NCC2CCCCO2)ccc2nn(CC3CCN(C(=O)c4ccc(Cl)cc4)CC3)cc12 (single isomer, unassigned) [Example 240, (R or S)-2-{[1-(4-chlorobenzoyl)piperidin-4-yl]methyl}-4-methyl-N-(3,4,5,6-tetrahydro-2H-pyran-2-ylmethyl)-2H-indazol-5-carboxamide] | 25.1 nM | xxx (xxx > 100) | xxx (xxx > 100)
21 | COCCNC(=O)c1ccc2nn(CC3CCN(C(=O)c4ccc(N5CCCC5)cc4F)CC3)cc2c1C [Example 41, 2-({1-[2-fluoro-4-(pyrrolidin-1-yl)-benzoyl]piperidin-4-yl}methyl)-N-(2-methoxyethyl)-4-methyl-2H-indazol-5-carboxamide] | 5.62 nM | xxx (xxx > 100) | xxx (xxx > 100)
